Experimental data from patent US10738035B2, “Hepatitis B antiviral agents” (Enanta Pharmaceuticals, Inc., priority 2015, dated 2020).

Tests used:
[1] = Compound toxicity, ATPLite (CC50); conditions: human, HepAD38 cells
Description: (§1) Briefly, cells are passaged upon attaining confluency in DMEM/F12 media in the presence of 10% FBS, Penn/Strep, 250 μg/mL G418, and 1 μg/ml tetracycline. Novel compounds are screened by first washing cells three times with PBS to remove tetracycline, and plating in 96 well plates at 35,000 cells/well. Compounds dissolved in DMSO are then diluted 1:200 into wells containing cells. Five days after compound addition, material is harvested for analysis.
Compound toxicity is evaluated by seeding cells at 15,000 cells/well and treating with compound as described above.

hepatitis B virus (HBV) = assay: HepAD38 antiviral assay (viral product accumulation, EC50); conditions: HePAD38, 120 h, read-out: HepAD38 EC50
Description: as §1
On harvest day, virion DNA is obtained by lysing with Sidestep Lysis and Stabilization Buffer and then quantified via quantitative real time PCR. Commercially available ELISA kits are used to quantitate the viral proteins HBsAg (Alpco) or HbeAg (US Biological) by following the manufacturer's recommended protocol after diluting samples to match the linear range of their respective assays.

Row | Compound | CC50 at 3 days [1] [µM] | EC50 (hepatitis B virus (HBV)) [µM]
1 | Cn1nc(NC(=O)N2CCC(O)CC2)cc1C(=O)Nc1ccncc1 [Example 56] | > 30 | > 10
2 | COC(=O)c1cccc(NC(=O)c2cc(NC(=O)N3CCC(O)CC3)nn2C)c1 [Example 73] | > 30 | > 10
3 | COc1cc(NC(=O)c2cc(NC(=O)N3CCC(O)CC3)nn2C)ccc1F [Example 55] | > 30 | > 10
4 | CN(C(=O)Nc1cc(C(=O)Nc2cc(F)c(F)c(F)c2)n(C)n1)C1CCCCC1 [Example 28] | > 30 | < 1
5 | COc1ccc(NC(=O)c2cc(NC(=O)N3CCC(O)CC3)nn2C)cc1 [Example 64] | > 30 | > 10
6 | Cn1nc(NC(=O)N2CCC(O)CC2)c(Cl)c1C(=O)Nc1cc(F)c(F)c(F)c1 [Example 11] | > 30 | 1 to 10
7 | Cn1nc(NC(=O)N2CCC(O)CC2)cc1C(=O)Nc1cccc(F)c1 [Example 43] | > 30 | 1 to 10
8 | C=CCn1nc(NC(=O)N2CCC(O)CC2)cc1C(=O)Nc1cc(F)c(F)c(F)c1 [Example 33] | > 30 | 1 to 10
9 | Cn1nc(NC(=O)N2CCC(O)CC2)cc1C(=O)Nc1ccc(F)cc1F [Example 47] | > 30 | > 10
10 | COc1cccc(NC(=O)c2cc(NC(=O)N3CCC(O)CC3)nn2C)c1 [Example 65] | > 30 | > 10
11 | Cn1nc(NC(=O)N2CCCCC2)cc1C(=O)Nc1cc(F)c(F)c(F)c1 [Example 16] | < 10 | 1 to 10
12 | O=S(=O)(c1c(Cl)ccc2c(Nc3cc(F)c(F)c(F)c3)n[nH]c12)N1CCC(O)CC1 [Example 1] | > 30 | > 10
13 | Cn1nc(NC(=O)NCCO)cc1C(=O)Nc1cc(F)c(F)c(F)c1 [Example 32] | 10 to 30 | 1 to 10
14 | Cn1nc(NC(=O)N2CCC(F)CC2)cc1C(=O)Nc1cc(F)c(F)c(F)c1 [Example 17] | < 10 | 1 to 10
15 | CN(C)CCNC(=O)Nc1cc(C(=O)Nc2cc(F)c(F)c(F)c2)n(C)n1 [Example 25] | > 30 | > 10
16 | Cn1nc(NC(=O)Nc2cc(F)c(F)c(F)c2)cc1S(=O)(=O)N1CCC(O)CC1 [Example 2] | > 30 | 1 to 10
17 | Cn1nc(NS(=O)(=O)N2CCC(OCc3ccccc3)CC2)cc1C(=O)Nc1cc(F)c(F)c(F)c1 [Example 12] | 10 to 30 | 1 to 10
18 | Cn1nc(NC(=O)N2CCC(O)CC2)cc1C(=O)Nc1cccc(O)c1 [Example 63] | > 30 | > 10
19 | CC(C)c1cccc(NC(=O)c2cc(NC(=O)N3CCC(O)CC3)nn2C)c1 [Example 68] | > 10 | > 10
20 | Cn1nc(NC(=O)N2CCC(C)(O)CC2)cc1C(=O)Nc1cc(F)c(F)c(F)c1 [Example 19] | > 30 | 1 to 10
21 | Cn1nc(NC(=O)N2CCC(O)CC2)cc1-c1ncc(-c2cc(F)c(F)c(F)c2)[nH]1 [Example 8] | > 10 | > 10
22 | CN(CCO)C(=O)Nc1cc(C(=O)Nc2cc(F)c(F)c(F)c2)n(C)n1 [Example 21] | > 30 | 1 to 10
23 | Cn1nc(NC(=O)N2CCC(O)CC2)cc1C(=O)Nc1ccc(C(C)(C)C)cc1 [Example 69] | > 30 | > 10
24 | Cn1nc(NC(=O)N2CCC(O)CC2)cc1C(=O)Nc1ccc(F)c(F)c1 [Example 44] | > 30 | 1 to 10
25 | Cn1nc(NC(=O)N2CCC(F)(F)CC2)cc1C(=O)Nc1cc(F)c(F)c(F)c1 [Example 18] | > 30 | 1 to 10
26 | Cn1nc(NC(=O)N2CCC(O)CC2)cc1C(=O)Nc1ccc(F)c(C#N)c1 [Example 53] | > 30 | 1 to 10
27 | Cn1nc(NC(=O)N2CCC(O)CC2)cc1C(=O)Nc1cccnc1 [Example 37] | > 30 | > 10
28 | Cn1nc(NC(=O)N2CCC(O)CC2)cc1C(=O)Nc1ccc(F)c(Cl)c1 [Example 48] | < 10 | 1 to 10
